Measured values from ChEMBL document CHEMBL1201862, “PubChem BioAssay data set” (2004).
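1) Cells in 96-well plates. 2) Compound, 48 h, 5 concentrations. 3) Linear interpolation between surrounding doses. 4) Unreached endpoint = highest concentration. At the GI50, growth is halved.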 Activity calls are given as the source filed them. Rule as the data show it: active = GI50 up to about 1.1 µM and inactive = higher.

Legend:
Test in all cases: DTP human tumour cell line panel, 48 h
[1] = system: LOX IMVI
[2] = system: HL-60
[3] = system: NCI-H226
[4] = system: K562
[5] = system: SF-295
[6] = system: A498
[7] = system: HOP-92
[8] = system: SW-620
[9] = system: NCI-H23
[10] = system: SF-539
[11] = system: UO-31
[12] = system: RXF 393
[13] = system: COLO 205
[14] = system: HT-29
[15] = system: HCT-116
[16] = system: MOLT-4
[17] = system: NCI-H460
[18] = system: CCRF-CEM
[19] = system: Malme-3M
[20] = system: OVCAR-4
[21] = system: SK-OV-3
[22] = system: ACHN
[23] = system: UACC-62
[24] = system: SNB-19
[25] = system: SNB-75
[26] = system: SK-MEL-5
[27] = system: U-251
[28] = system: OVCAR-8
[29] = system: EKVX
[30] = system: T47D
[31] = system: SF-268
[32] = system: UACC-257
[33] = system: Hs-578T
[34] = system: A549
[35] = system: HCC 2998
[36] = system: HCT-15
[37] = system: NCI-H522
[38] = system: DU-145
[39] = system: KM12
[40] = system: 786-0
[41] = system: PC-3
[42] = system: SR
[43] = system: RPMI-8226
[44] = system: OVCAR-5
[45] = system: NCI/ADR-RES
[46] = system: MDA-MB-435
[47] = system: CAKI-1
[48] = system: IGROV-1
[49] = system: SN12C
[50] = system: SK-MEL-2
[51] = system: MDA-MB-231
[52] = system: SK-MEL-28
[53] = system: HOP-62
[54] = system: TK-10
[55] = system: M14
[56] = system: MDA-N
[57] = system: MCF7

SMILES: Cn1/c(=N\c2ccc(Cl)cc2)sc2ccccc21
- GI50 [1]: 34.7 µM (inactive)
- GI50 [2]: 44.9 µM (inactive)
- GI50 [3]: 46 µM (inactive)
- GI50 [4]: 57.9 µM (inactive)
- GI50 [5]: 33.4 µM (inactive)
- GI50 [6]: 55.2 µM (inactive)
- GI50 [7]: 23.3 µM (inactive)
- GI50 [8]: 39.8 µM (inactive)
- GI50 [9]: 38.9 µM (inactive)
- GI50 [10]: 85.1 µM (inactive)
- GI50 [11]: 26.1 µM (inactive)
- GI50 [12]: 50.8 µM (inactive)
- GI50 [13]: 22.3 µM (inactive)
- GI50 [14]: 32.7 µM (inactive)
- GI50 [15]: 37 µM (inactive)
- GI50 [16]: 48.2 µM (inactive)
- GI50 [17]: 40.7 µM (inactive)
- GI50 [18]: > 100 µM (inactive)
- GI50 [19]: 57.7 µM (inactive)
- GI50 [20]: > 100 µM (inactive)
- GI50 [21]: > 100 µM (inactive)
- GI50 [22]: 49.8 µM (inactive)
- GI50 [23]: 40.6 µM (inactive)
- GI50 [24]: > 100 µM (inactive)
- GI50 [25]: 45.8 µM (inactive)
- GI50 [26]: 27.7 µM (inactive)
- GI50 [27]: 52.5 µM (inactive)
- GI50 [28]: 38.5 µM (inactive)
- GI50 [29]: 21.1 µM (inactive)
- GI50 [30]: 15 µM (inactive)
- GI50 [31]: > 100 µM (inactive)
- GI50 [32]: 35.7 µM (inactive)
- GI50 [33]: 62.4 µM (inactive)
- GI50 [34]: 32.5 µM (inactive)
- GI50 [35]: 23.7 µM (inactive)
- GI50 [36]: 8.15 µM
- GI50 [37]: 4.98 µM (inactive)
- GI50 [38]: 26.6 µM (inactive)
- GI50 [39]: 21.9 µM (inactive)
- GI50 [40]: 37.7 µM (inactive)
- GI50 [41]: 37 µM (inactive)
- GI50 [42]: > 100 µM (inactive)
- GI50 [43]: 92.3 µM (inactive)
- GI50 [44]: 34.8 µM (inactive)
- GI50 [45]: 34.7 µM (inactive)
- GI50 [46]: 42.1 µM (inactive)
- GI50 [47]: 34 µM (inactive)
- GI50 [48]: 55.3 µM (inactive)
- GI50 [49]: 75.3 µM (inactive)
- GI50 [50]: 39.4 µM (inactive)
- GI50 [51]: 35.5 µM (inactive)
- GI50 [52]: > 100 µM (inactive)
- GI50 [53]: 71.3 µM (inactive)
- GI50 [54]: 43 µM (inactive)

SMILES: COC(=O)N[C@H](C(=O)NC(OCc1ccccc1)C1COC(C)(C)O1)C(C)O[Si](C)(C)C(C)(C)C (stereo not given in full)
- GI50 [55]: > 100 µM (inactive)
- GI50 [2]: 75.7 µM (inactive)
- GI50 [4]: > 100 µM (inactive)
- GI50 [6]: > 100 µM (inactive)
- GI50 [7]: 70 µM (inactive)
- GI50 [8]: 75.3 µM (inactive)
- GI50 [9]: > 100 µM (inactive)
- GI50 [56]: > 100 µM (inactive)
- GI50 [11]: > 100 µM (inactive)
- GI50 [12]: > 100 µM (inactive)
- GI50 [13]: > 100 µM (inactive)
- GI50 [14]: 24.3 µM (inactive)
- GI50 [15]: > 100 µM (inactive)
- GI50 [16]: 31.4 µM (inactive)
- GI50 [17]: 57.3 µM (inactive)
- GI50 [18]: > 100 µM (inactive)
- GI50 [19]: > 100 µM (inactive)
- GI50 [20]: > 100 µM (inactive)
- GI50 [21]: > 100 µM (inactive)
- GI50 [22]: > 100 µM (inactive)
- GI50 [24]: > 100 µM (inactive)
- GI50 [25]: 38.4 µM (inactive)
- GI50 [26]: 26.7 µM (inactive)
- GI50 [27]: 88.7 µM (inactive)
- GI50 [28]: > 100 µM (inactive)
- GI50 [29]: > 100 µM (inactive)
- GI50 [30]: > 100 µM (inactive)
- GI50 [31]: > 100 µM (inactive)
- GI50 [32]: 59.4 µM (inactive)
- GI50 [33]: > 100 µM (inactive)
- GI50 [34]: > 100 µM (inactive)
- GI50 [35]: 77.8 µM (inactive)
- GI50 [36]: 58.3 µM
- GI50 [38]: > 100 µM (inactive)
- GI50 [57]: 27.6 µM (inactive)
- GI50 [40]: > 100 µM (inactive)
- GI50 [41]: 32.4 µM (inactive)
- GI50 [42]: 26.4 µM (inactive)
- GI50 [43]: 22.4 µM (inactive)
- GI50 [44]: > 100 µM (inactive)
- GI50 [45]: > 100 µM (inactive)
- GI50 [47]: 96.2 µM (inactive)
- GI50 [48]: > 100 µM (inactive)
- GI50 [52]: > 100 µM (inactive)
- GI50 [53]: 92.5 µM (inactive)
- GI50 [54]: > 100 µM (inactive)
